{"source": "patent US8105979B2", "about": "“Active ingredient combinations with insecticidal and acaricidal properties” (Bayer CropScience AG, priority 2006, dated 2012)", "key": {"Myzus persicae": {"system": "Myzus persicae", "test": "Myzus persicae test (cabbage leaf dip)", "format": "in vivo", "conditions": "single active compound"}, "[1]": {"system": "Phaedon cochleariae larvae", "test": "Phaedon cochleariae larvae test (cabbage leaf dip)", "conditions": "single active compound"}}}
{"molecule": "CN(Cc1ccc(Cl)nc1)C1=CC(=O)OC1", "note": "[compound (Ia)]", "values": [{"measurement": "Kill in % after 1d", "setting": "Myzus persicae; 0.8 ppm", "result": 70, "unit": "%"}, {"measurement": "Kill in % after 6d", "setting": "[1]; 20 ppm", "result": 5, "unit": "%"}, {"measurement": "Kill in % after 4d", "setting": "[1]; 100 ppm", "result": 68, "unit": "%"}]}
{"molecule": "spirotetramate [reference compound]", "values": [{"measurement": "Kill in % after 1d", "setting": "Myzus persicae; 0.8 ppm", "result": 5, "unit": "%"}, {"measurement": "Kill in % after 4d", "setting": "[1]; 20 ppm", "result": 5, "unit": "%"}]}
{"molecule": "O=C1C=C(N(Cc2ccc(Cl)nc2)C2CC2)CO1", "note": "[compound (Ib)]", "values": [{"measurement": "Kill in % after 1d", "setting": "Myzus persicae; 0.8 ppm", "result": 10, "unit": "%"}, {"measurement": "Kill in % after 1d", "setting": "Myzus persicae; 4 ppm", "result": 75, "unit": "%"}]}
{"molecule": "Cc1cc(C)c(C2=C(OC(=O)CC(C)(C)C)C3(CCCC3)OC2=O)c(C)c1", "note": "[spiromesifen, reference compound]", "values": [{"measurement": "Kill in % after 1d", "setting": "Myzus persicae; 100 ppm", "result": 0, "unit": "%"}, {"measurement": "Kill in % after 6d", "setting": "[1]; 100 ppm", "result": 10, "unit": "%"}]}
